Experiments:
type V phosphodiesterase = target: T1, type V phosphodiesterase (Homo sapiens, UniProt O76074); test: Phosphodiesterase inhibition activity (in vitro), Type V; type: biochemical, human (peripheral blood of a healthy person); conditions: 1 μM cGMP
T1 construct: from tissue; host or cells: human peripheral blood granulocyte fraction, soluble, Q Sepharose
Text: (§1) (A) In order to evaluate selectivity of the compounds of the present invention for type IV phosphodiesterase, types I, II, III and V phosphodiesterase isozymes were purified in the following manner.
(§2) 2) Solutions containing various phosphodiesterase isozymes were obtained from the thus obtained soluble fraction in the following manner. The thus, obtained soluble fraction was applied to a column of 1.6×10.0 cm packed with Q Sepharose which had been equilibrated with buffer A. Next, said column was washed with 300 ml of buffer A to remove non-absorbed protein. Phosphodiesterase was eluted with 200 ml of buffer A having 0.05 to 1.25M linear gradient of sodium acetate to collect about 40 fractions each containing 5.0 ml eluate. Each fraction was checked for cAMP- and cGMP-metabolizing phosphodiesterase activities. Of these fractions, a fraction having only cAMP-metabolizing activity and showing disappearance of the metabolizing activity by 0.1 μM cilostamide (a type III phosphodiesterase selective inhibitor) was used as the type III phosphodiesterase. […] These fractions were separately collected to be used as phosphodiesterase (types I, II and III) stock solutions for the examination of selectivity. p1 3) A solution containing type V phosphodiesterase was prepared from peripheral blood of a healthy person in the following manner. A 200 ml portion of physiological saline supplemented with dextran (3%) was added to 500 ml of heparinized peripheral blood and incubated at 37° C. for 40 minutes to effect precipitation of erythrocytes. The supernatant fluid after precipitation of erythrocytes was recovered and centrifuged once, and the resulting precipitate was suspended in buffer B (140 mM NaCl, 5 mM KCl, 5 mm glucose and 10 mM HEPES, pH 7.4), overlaid on a solution for density gradient centrifugation use (Ficoll solution) and then centrifuged at room temperature for 40 minutes at 450×g, thereby separating monocyte fraction and granulocyte fraction. The granulocyte fraction was washed once with buffer C (140 mM NaCl, 5 mM KCl, 1 mM CaCl2, 1 mM MgCl2, 5 mM glucose and 10 mM HEPES, pH 7.4) and suspended in buffer D (20 mM Bis-Tris, 5 mM dithioerythritol, 2 mM EGTA and 50 mM sodium acetate, pH 6.5) containing a protease inhibitor (40 μM leupeptin, 5 μM pepstatin A, 20 μM aprotinin, 50 μM phenyl-methyl-sulfonyl-fluoride or 2 mM benzamidine) and then the cells were disrupted using polytron and sonicator and subjected to ultracentrifugation (4° C., 100,000×g, 60 minutes) to give a soluble fraction.
4) The thus obtained soluble fraction was applied to a column of 1.6×10 cm packed with Q Sepharose which had been equilibrated with buffer D. Next, the column was washed with 120 ml of buffer D to remove non-absorbed protein. Phosphodiesterase was eluted with 300 ml of buffer D having 0.05 to 1.25M linear gradient of sodium acetate to collect fractions each containing 5.0 ml eluate. Each fraction was checked for cAMP- and cGMP-metabolizing phosphodiesterase activities. Fractions having only cGMP metabolizing activity were collected to be used as the type V phosphodiesterase stock solution.
(§3) (B) Inhibitory activities were measured using the thus obtained stock solutions of various phosphodiesterase isozymes.
1) A predetermined amount of each compound to be tested was subjected to 10 minutes of reaction at 30° C. in a reaction mixture containing 40 mM Tris-HCl (pH 8.0), 5 mM MgCl2, 4 mM 2-mercaptoethanol, 10 μM rolipram (a type IV phosphodiesterase selective inhibitor), 1 μM cAMP, 10 nM ^3 H-cAMP (in the case of type V phosphodiesterase, 1 μM cAMP and 10 nM ^3 H-cAMP are replaced by 1 μM cGMP and 100 nM ^3 H-cGMP) and each of the isozyme stock solutions. After completion of the reaction, the reaction mixture was boiled at 90° C. for 1 minute, ice-cooled, mixed with 1 unit of 5'-nucleotidase and then subjected to 10 minutes of reaction at 30° C., and the reaction was stopped by adding 1 ml of methanol. […]

[1] = target: T2, type II phosphodiesterase (Rattus norvegicus, UniProt Q01062); test: Phosphodiesterase inhibition activity (in vitro), Type II; type: biochemical; conditions: Type II phosphodiesterase column
T2 construct: purified from rat heart muscle cells; from tissue; host or cells: rat heart, soluble fraction, Q Sepharose
T2 sequence (Q01062 1-928): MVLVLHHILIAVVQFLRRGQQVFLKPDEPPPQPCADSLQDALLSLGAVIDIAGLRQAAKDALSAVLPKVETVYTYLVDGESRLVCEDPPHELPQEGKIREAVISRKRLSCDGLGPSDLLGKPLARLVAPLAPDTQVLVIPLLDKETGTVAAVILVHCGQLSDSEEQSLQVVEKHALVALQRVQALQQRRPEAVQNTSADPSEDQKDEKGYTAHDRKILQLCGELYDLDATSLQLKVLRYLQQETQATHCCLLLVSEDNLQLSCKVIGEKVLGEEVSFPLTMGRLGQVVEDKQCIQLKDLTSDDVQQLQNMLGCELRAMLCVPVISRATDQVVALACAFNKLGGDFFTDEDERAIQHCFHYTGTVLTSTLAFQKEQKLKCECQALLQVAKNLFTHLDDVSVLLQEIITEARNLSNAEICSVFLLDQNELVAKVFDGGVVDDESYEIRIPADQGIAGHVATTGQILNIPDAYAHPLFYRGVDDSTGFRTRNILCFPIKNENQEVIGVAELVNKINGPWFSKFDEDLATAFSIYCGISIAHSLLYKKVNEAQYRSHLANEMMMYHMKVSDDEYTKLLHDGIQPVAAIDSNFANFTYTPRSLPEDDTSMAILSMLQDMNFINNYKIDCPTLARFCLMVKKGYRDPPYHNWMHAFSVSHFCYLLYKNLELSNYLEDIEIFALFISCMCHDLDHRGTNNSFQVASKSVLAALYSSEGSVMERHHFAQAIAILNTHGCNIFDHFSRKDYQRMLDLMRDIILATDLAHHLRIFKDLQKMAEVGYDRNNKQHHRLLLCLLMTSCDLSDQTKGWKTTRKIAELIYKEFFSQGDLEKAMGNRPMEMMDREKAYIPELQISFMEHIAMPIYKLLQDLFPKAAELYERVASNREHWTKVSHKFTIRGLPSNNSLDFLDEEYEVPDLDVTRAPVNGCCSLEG
Text: as §1
1) Solutions containing various phosphodiesterase (types I, II and III) isozymes were purified from rat heart muscle cells in the following manner. Under ether anesthesia, Wistar rat was subjected to thoracotomy to excise the heart. After removing blood by perfusion with physiological saline supplemented with heparin (1 unit/ml), the heart was finely chopped with scissors. This was suspended in buffer A (20 mM Bis-Tris, 5 mM dithioerythritol, 2 mM EGTA and 50 mM sodium acetate, pH 6.5) containing a protease inhibitor (50 μM phenyl-methyl-sulfonyl-fluoride, 5 μM pepstatin A, 40 μM leupeptin, 20 μM aprotinin or 2 mM benzamidine) and then the cells were disrupted using polytron and sonicator and subjected to ultracentrifugation (4° C., 100,000×g, 60 minutes) to give a soluble fraction.
as §2, §3
1) A predetermined amount of each compound to be tested was subjected to 10 minutes of reaction at 30° C. in a reaction mixture containing 40 mM Tris-HCl (pH 8.0), 5 mM MgCl2, 4 mM 2-mercaptoethanol, 10 μM rolipram (a type IV phosphodiesterase selective inhibitor), 1 μM cAMP, 10 nM ^3 H-cAMP (in the case of type V phosphodiesterase, 1 μM cAMP and 10 nM ^3 H-cAMP are replaced by 1 μM cGMP and 100 nM ^3 H-cGMP) and each of the isozyme stock solutions. […]

IC50 (type V phosphodiesterase): 1050 nM | IC50 [1]: > 3000 nM
Structure (SMILES): CCc1cc(C)c2c(-c3cccc(Cl)c3)cc(=O)n(CC)c2n1 [Example 39, 4-(3-Chlorophenyl)-1,7-diethyl-5-methyl-1,8-naphthyridin-2(1H)-one]

Source: patent US5817670A, “Naphthyridine derivatives and pharmaceutical compositions thereof” (Yamanouchi Pharmaceutical Co., Ltd., priority 1994, dated 1998)
